From ChEMBL document CHEMBL5154927, “Discovery of Novel Bicyclic Phenylselenyl-Containing Hybrids: An Orally Bioavailable, Potential, and Multiacting Class of Estrogen Receptor Modulators against Endocrine-Resistant Breast Cancer” (J Med Chem, 2022)
Calls of active or inactive are those of the source. The calls are words filed in the database; no cut-off is given here.

Tests used:
[1] = Selectivity index, ratio of IC50 for human MCF-10A cells to IC50 for human MCF-7 cells; format: toxicity; conditions: MCF-10A cells and MCF-7 cells, read-out: Ratio IC50
MCF7 [2] = experiment: cells; conditions: Homo sapiens, MCF7, 72 h
Description: Antiproliferative activity against human MCF7 cells assessed as reduction in cell viability measured after 72 hrs by Cell Counting Kit-8 assay

MDA-MB-231 = experiment: cells; conditions: Homo sapiens, MDA-MB-231, 72 h
Description: Antiproliferative activity against human MDA-MB-231 cells assessed as reduction in cell viability measured after 72 hrs by Cell Counting Kit-8 assay

[3] = Antiproliferative activity against human MCF-10A cells assessed as reduction in cell viability measured after 72 hrs by Cell Counting Kit-8 assay; format: toxicity, cell-based
[4] = Antiproliferative activity against tamoxifen-resistant human LCC2 cells assessed as reduction in cell viability measured after 72 hrs by Cell Counting Kit-8 assay; format: functional, cell-based; conditions: LCC2, 72 h
MCF7 [5] = experiment: Induction of apoptosis in human MCF7 cells at 20 uM incubated for 48 hrs by annexin V-FITC staining based flow cytometry; format: functional, cell-based
[6] = molecular target: Estrogen receptor beta (Homo sapiens) (UniProt Q92731); experiment: Relative binding affinity to human ERbeta measured after 2 hrs by competitive fluorometric binding assay relative to estradiol
Sequence of Estrogen receptor beta (Homo sapiens) (Q92731 whole entry): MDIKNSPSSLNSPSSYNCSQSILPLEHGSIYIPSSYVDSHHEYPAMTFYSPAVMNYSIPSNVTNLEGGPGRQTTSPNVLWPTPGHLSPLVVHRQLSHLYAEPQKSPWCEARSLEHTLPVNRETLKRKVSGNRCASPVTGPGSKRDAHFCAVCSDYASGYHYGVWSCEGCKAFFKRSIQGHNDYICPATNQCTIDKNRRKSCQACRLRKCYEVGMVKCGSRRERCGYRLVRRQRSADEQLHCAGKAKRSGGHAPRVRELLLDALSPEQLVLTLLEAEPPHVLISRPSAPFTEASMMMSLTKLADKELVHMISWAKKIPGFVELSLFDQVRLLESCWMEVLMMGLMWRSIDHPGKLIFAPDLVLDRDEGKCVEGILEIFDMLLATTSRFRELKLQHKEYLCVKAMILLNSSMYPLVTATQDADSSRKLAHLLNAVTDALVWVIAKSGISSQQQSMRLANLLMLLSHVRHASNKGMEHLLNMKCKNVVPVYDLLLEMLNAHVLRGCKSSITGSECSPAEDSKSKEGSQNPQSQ

Homo sapiens = species on record: Homo sapiens; experiment: Selectivity ratio of relative binding affinity for human ERalpha to relative binding affinity for human ERbeta
[7] = molecular target: T1, Hexokinase-1 (Homo sapiens) (UniProt P19367); experiment: Binding affinity to hexokinase-1 in human MCF7 cell lysate assessed as HK-1 pull down by western blotting based Co-immunoprecipitation assay; format: subcellular; conditions: filed as antagonist
T1 sequence (whole entry): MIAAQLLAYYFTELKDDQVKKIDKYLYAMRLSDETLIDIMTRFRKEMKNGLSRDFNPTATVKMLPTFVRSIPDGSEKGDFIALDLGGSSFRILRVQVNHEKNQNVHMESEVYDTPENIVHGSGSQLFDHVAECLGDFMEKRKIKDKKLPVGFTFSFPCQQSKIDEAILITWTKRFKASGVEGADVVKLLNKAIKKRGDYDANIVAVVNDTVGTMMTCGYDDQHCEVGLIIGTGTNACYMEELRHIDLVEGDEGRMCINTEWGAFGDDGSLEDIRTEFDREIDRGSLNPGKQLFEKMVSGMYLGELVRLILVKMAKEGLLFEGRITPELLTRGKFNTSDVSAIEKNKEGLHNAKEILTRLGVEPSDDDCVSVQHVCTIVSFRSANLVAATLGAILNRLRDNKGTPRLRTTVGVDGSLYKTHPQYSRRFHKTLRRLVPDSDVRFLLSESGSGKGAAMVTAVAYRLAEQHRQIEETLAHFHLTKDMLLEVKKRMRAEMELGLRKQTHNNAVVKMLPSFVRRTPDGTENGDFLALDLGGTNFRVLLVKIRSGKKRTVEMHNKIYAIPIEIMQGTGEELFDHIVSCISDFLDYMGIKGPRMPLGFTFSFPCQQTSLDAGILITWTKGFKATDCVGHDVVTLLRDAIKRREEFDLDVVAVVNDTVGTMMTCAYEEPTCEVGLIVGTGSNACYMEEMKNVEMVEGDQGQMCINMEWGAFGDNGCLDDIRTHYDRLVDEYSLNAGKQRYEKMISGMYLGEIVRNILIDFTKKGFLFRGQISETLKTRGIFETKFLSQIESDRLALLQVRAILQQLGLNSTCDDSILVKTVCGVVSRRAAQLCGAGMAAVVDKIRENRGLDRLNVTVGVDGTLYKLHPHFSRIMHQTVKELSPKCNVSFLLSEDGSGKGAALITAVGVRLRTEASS

MCF7 [8] = experiment: Antitumor activity against human MCF7 cells xenografted in BALB/C mouse assessed as increase in tumor necrosis area at 20 mg/kg, po […]; format: functional, organism-based
MCF7 [9] = experiment: Antitumor activity against human MCF7 cells xenografted in BALB/C mouse assessed as decrease in cell proliferation at 20 mg/kg, po by Ki67 staining based immunohistochemical analysis; format: functional, organism-based

Row | Compound | IC50 (MCF7 [2]) [µM] | IC50 (MDA-MB-231) [µM] | RBA [6] [%] | Ratio (Homo sapiens) | Activity [7] | selectivity ratio [1] | IC50 at 72 h [3] [µM] | IC50 [4] [µM] | Activity (MCF7 [5]) | Activity (MCF7 [8]) | Activity (MCF7 [9])
1 | COc1ccc(OS(=O)(=O)C2CC3OC2C(c2ccc(O)cc2)=C3c2ccc([Se]c3ccccc3)cc2)cc1 (centres undefined) | 7.46 | > 60 | – | – | – | > 8.04 | > 60 | – | – | – | –
2 | O=S(=O)(Oc1ccccc1)C1CC2OC1C(c1ccc(O)cc1)=C2c1ccc(O)cc1 (centres undefined) | 14.6 | 32.3 | – | – | – | > 4.11 | > 60 | > 31 | Active | – | –
3 | O=C(CCC[C@@H]1SC[C@@H]2NC(=O)N[C@@H]21)Nc1cccc2c(OS(=O)(=O)C3CC4OC3C(c3ccc(O)cc3)=C4c3ccc(O)cc3)cccc12 (some centres undefined) | – | – | 0.1 | 3.4 | Active | – | – | – | – | – | –
4 | O=S(=O)(Oc1ccc([Se]c2ccccc2)cc1)C1CC2OC1C(c1ccc(O)cc1)=C2c1ccc(O)cc1 (centres undefined) | 0.8 | 31.6 | – | – | – | > 75 | > 60 | 20.5 | – | – | –
5 | COc1cccc(OS(=O)(=O)C2CC3OC2C(c2ccc(O)cc2)=C3c2ccc([Se]c3ccccc3)cc2)c1 (centres undefined) | 0.66 | 10.5 | – | – | – | 27.1 | 17.9 | 4.8 | – | – | –
6 | O=S(=O)(Oc1cccc2ccccc12)C1CC2OC1C(c1ccc(O)cc1)=C2c1ccc([Se]c2ccccc2)cc1 (centres undefined) | 1.13 | 45.5 | – | – | – | > 53.1 | > 60 | – | – | – | –
7 | O=S(=O)(Oc1cccc(Br)c1)C1CC2OC1C(c1ccc([Se]c3ccccc3)cc1)=C2c1ccc(O)cc1 (centres undefined) | 1.36 | 19.2 | – | – | – | 12.7 | 17.3 | > 31 | – | – | –
8 | CC/C(=C(\c1ccccc1)c1ccc(OCCN(C)C)cc1)c1ccccc1 | – | – | – | – | – | – | – | – | – | Active | Active
9 | O=S(=O)(Oc1ccc(O)cc1)C1CC2OC1C(c1ccc(O)cc1)=C2c1ccc([Se]c2ccccc2)cc1 (centres undefined) | 1.96 | 12.2 | – | – | – | 8.54 | 16.7 | > 31 | – | – | –
10 | CC/C(=C(\c1ccc(O)cc1)c1ccc(OCCN(C)C)cc1)c1ccccc1 [AFIMOXIFENE] | – | 18.4 | – | – | – | – | – | 22.2 | – | – | –
11 | O=S(=O)(Oc1cccc([Se]c2ccccc2)c1)C1CC2OC1C(c1ccc(O)cc1)=C2c1ccc(O)cc1 (centres undefined) | 1.71 | 25.6 | – | – | – | 29.4 | 50.3 | > 31 | – | – | –
12 | Cc1ccc(OS(=O)(=O)C2CC3OC2C(c2ccc(O)cc2)=C3c2ccc([Se]c3ccccc3)cc2)cc1 (centres undefined) | 3.98 | 8.05 | – | – | – | 4.6 | 18.3 | 6.08 | – | – | –

Now from value to molecule, other results behind:

Row | IC50 (MCF7 [2]) [µM] | IC50 (MDA-MB-231) [µM] | RBA [6] [%] | Ratio (Homo sapiens) | Activity [7] | Compound | selectivity ratio [1] | IC50 at 72 h [3] [µM] | IC50 [4] [µM] | Activity (MCF7 [5]) | Activity (MCF7 [8]) | Activity (MCF7 [9])
13 | 0.16 | > 60 | – | – | – | O=S(=O)(Oc1ccccc1)C1CC2OC1C(c1ccc(O)cc1)=C2c1ccc([Se]c2ccccc2)cc1 (centres undefined) | > 375 | > 60 | – | – | – | –
14 | 0.45 | 27.5 | – | – | – | O=S(=O)(Oc1ccc(C(F)(F)F)cc1)C1CC2OC1C(c1ccc([Se]c3ccccc3)cc1)=C2c1ccc(O)cc1 (centres undefined) | 41.2 | 18.5 | – | – | – | –
15 | 0.54 | 16.8 | – | – | – | O=S(=O)(Oc1cccc(C(F)(F)F)c1)C1CC2OC1C(c1ccc([Se]c3ccccc3)cc1)=C2c1ccc(O)cc1 (centres undefined) | 75.9 | 41 | 8.76 | – | – | –
16 | 0.37 | 11 | – | – | – | O=S(=O)(Oc1ccc(Cl)cc1)C1CC2OC1C(c1ccc(O)cc1)=C2c1ccc([Se]c2ccccc2)cc1 (centres undefined) | 86.4 | 32 | 6.64 | – | – | –
17 | 0.41 | 8.49 | – | – | – | Cc1ccc(OS(=O)(=O)C2CC3OC2C(c2ccc([Se]c4ccccc4)cc2)=C3c2ccc(O)cc2)cc1 (centres undefined) | 45.1 | 18.5 | 6.82 | – | – | –
18 | 0.21 | 9.71 | – | – | – | COc1ccc(OS(=O)(=O)C2CC3OC2C(c2ccc([Se]c4ccccc4)cc2)=C3c2ccc(O)cc2)cc1 (centres undefined) | 138 | 29.1 | 5.92 | – | – | –
19 | 0.31 | 18.3 | – | – | – | O=S(=O)(Oc1ccc(Br)cc1)C1CC2OC1C(c1ccc([Se]c3ccccc3)cc1)=C2c1ccc(O)cc1 (centres undefined) | 90.8 | 28.2 | 25 | – | – | –
20 | 0.14 | 11 | – | – | – | O=S(=O)(Oc1ccc(Cl)cc1)C1CC2OC1C(c1ccc([Se]c3ccccc3)cc1)=C2c1ccc(O)cc1 (centres undefined) | 186 | 26.1 | 6.88 | – | – | –
21 | 0.55 | 17.4 | – | – | – | O=S(=O)(Oc1ccc(Br)cc1)C1CC2OC1C(c1ccc(O)cc1)=C2c1ccc([Se]c2ccccc2)cc1 (centres undefined) | 75.6 | 43.2 | > 31 | – | – | –
22 | 0.07 | 7.13 | – | – | – | O=S(=O)(Oc1cccc(O)c1)C1CC2OC1C(c1ccc(O)cc1)=C2c1ccc([Se]c2ccccc2)cc1 (centres undefined) | 106 | 7.41 | 2.88 | – | – | –
23 | 0.12 | 12.6 | – | – | – | Cc1cccc(OS(=O)(=O)C2CC3OC2C(c2ccc([Se]c4ccccc4)cc2)=C3c2ccc(O)cc2)c1 (centres undefined) | 255 | 30.6 | 8.42 | – | – | –
24 | 0.15 | 22 | – | – | – | O=S(=O)(Oc1ccc(C(F)(F)F)cc1)C1CC2OC1C(c1ccc(O)cc1)=C2c1ccc([Se]c2ccccc2)cc1 (centres undefined) | 94.3 | 14.1 | > 31 | – | – | –
25 | 0.18 | 41.9 | – | – | – | O=S(=O)(Oc1cccc(Cl)c1)C1CC2OC1C(c1ccc([Se]c3ccccc3)cc1)=C2c1ccc(O)cc1 (centres undefined) | 97.8 | 17.6 | > 31 | – | – | –
